In patent US9113629B2, “4-amino-6-(4-substituted-phenyl)-picolinates and 6-amino-2-(4-substituted-phenyl)-pyrimidine-4-carboxylates and their use as herbicides” (DOW AGROSCIENCES LLC, priority 2013, dated 2015):

These molecules were tested on VIOSS: wild pansy (Viola tricolor), field violet (Viola arvensis) (assay: Post-emergent Test III, herbicidal activity in wheat and barley). Details: Viola tricolor, post-emergence, 504 h; 35 g ai/ha; 21 days after application; read-out: Visual Gorowth Reduction (%) 21 days After Application VIOSS.
Type: in vivo
Procedure, shortened: (§1)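 GR20, GR50, GR80 and GR90 come from probit analysis of visual injury scores (0 = none, 100 = complete kill) taken 21 d after treatment. Foliar application was by track sprayer delivering 187 L/ha at five rates, from high down to 1/16×, onto greenhouse plants at the 2–3 leaf stage, with solvent-blank controls.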

Structure (SMILES)	pest or weed control at 35 g/ha [%]
Nc1c(F)c(-c2ccc(I)c(F)c2)nc(C(=O)O)c1Cl [Compound 157]	95 to 100
Nc1c(F)c(-c2ccc(Br)cc2F)nc(C(=O)O)c1Cl [Compound 163]	75 to 84

Same assay, conditions: Viola tricolor, post-emergence, 504 h; 70 g ai/ha; 21 days after application; read-out: Visual Gorowth Reduction (%) 21 days After Application VIOSS

Structure (SMILES)	pest or weed control at 70 g/ha [%]
Nc1c(F)c(-c2ccc(I)c(F)c2)nc(C(=O)O)c1Cl [Compound 157]	95 to 100
Nc1c(F)c(-c2ccc(Br)cc2F)nc(C(=O)O)c1Cl [Compound 163]	95 to 100

Same assay, conditions: probit analysis; dose for 50 percent growth reduction; 21 days after application

Structure (SMILES)	GR50 VIOSS [g ai/ha]
Nc1c(F)c(-c2ccc(I)c(F)c2)nc(C(=O)O)c1Cl [Compound 157]	1
Nc1c(F)c(-c2ccc(Br)cc2F)nc(C(=O)O)c1Cl [Compound 163]	14

Same assay, conditions: probit analysis; dose for 80 percent growth reduction; 21 days after application

Structure (SMILES)	GR80 VIOSS [g ai/ha]
Nc1c(F)c(-c2ccc(I)c(F)c2)nc(C(=O)O)c1Cl [Compound 157]	4
Nc1c(F)c(-c2ccc(Br)cc2F)nc(C(=O)O)c1Cl [Compound 163]	29

Each molecule was assayed on SASKR: Russian thistle (Salsola iberica) in the same assay as above. Details: Salsola tragus, post-emergence, 504 h; 35 g ai/ha; 21 days after application; read-out: Visual Gorowth Reduction (%) 21 days After Application SASKR.
Type: in vivo
Procedure, shortened: as §1

Structure (SMILES)	pest or weed control at 35 g/ha [%]
Nc1c(F)c(-c2ccc(I)c(F)c2)nc(C(=O)O)c1Cl [Compound 157]	75 to 84
Nc1c(F)c(-c2ccc(Br)cc2F)nc(C(=O)O)c1Cl [Compound 163]	75 to 84

Same assay, conditions: Salsola tragus, post-emergence, 504 h; 70 g ai/ha; 21 days after application; read-out: Visual Gorowth Reduction (%) 21 days After Application SASKR

Structure (SMILES)	pest or weed control at 70 g/ha [%]
Nc1c(F)c(-c2ccc(I)c(F)c2)nc(C(=O)O)c1Cl [Compound 157]	85 to 94
Nc1c(F)c(-c2ccc(Br)cc2F)nc(C(=O)O)c1Cl [Compound 163]	85 to 94

Same assay, conditions: probit analysis; dose for 50 percent growth reduction; 21 days after application

Structure (SMILES)	GR50 SASKR [g ai/ha]
Nc1c(F)c(-c2ccc(I)c(F)c2)nc(C(=O)O)c1Cl [Compound 157]	11
Nc1c(F)c(-c2ccc(Br)cc2F)nc(C(=O)O)c1Cl [Compound 163]	3

Same assay, conditions: probit analysis; dose for 80 percent growth reduction; 21 days after application

Structure (SMILES)	GR80 SASKR [g ai/ha]
Nc1c(F)c(-c2ccc(I)c(F)c2)nc(C(=O)O)c1Cl [Compound 157]	34
Nc1c(F)c(-c2ccc(Br)cc2F)nc(C(=O)O)c1Cl [Compound 163]	27

These molecules were tested on HORSS: barley, including spring and winter (Hordeum vulgare) in the same assay as above. Details: Hordeum vulgare, post-emergence, 504 h; 35 g ai/ha; 21 days after application; read-out: Visual Gorowth Reduction (%) 21 days After Application HORSS.
Type: in vivo
Procedure, shortened: as §1

Structure (SMILES)	pest or weed control at 35 g/ha [%]
Nc1c(F)c(-c2ccc(I)c(F)c2)nc(C(=O)O)c1Cl [Compound 157]	85 to 94
Nc1c(F)c(-c2ccc(Br)cc2F)nc(C(=O)O)c1Cl [Compound 163]	85 to 94

Same assay, conditions: Hordeum vulgare, post-emergence, 504 h; 70 g ai/ha; 21 days after application; read-out: Visual Gorowth Reduction (%) 21 days After Application HORSS

Structure (SMILES)	pest or weed control at 70 g/ha [%]
Nc1c(F)c(-c2ccc(I)c(F)c2)nc(C(=O)O)c1Cl [Compound 157]	95 to 100
Nc1c(F)c(-c2ccc(Br)cc2F)nc(C(=O)O)c1Cl [Compound 163]	95 to 100

Same assay, conditions: probit analysis; dose for 20 percent growth reduction (crop); 21 days after application

Structure (SMILES)	GR20 HORSS [g ai/ha]
Nc1c(F)c(-c2ccc(I)c(F)c2)nc(C(=O)O)c1Cl [Compound 157]	1
Nc1c(F)c(-c2ccc(Br)cc2F)nc(C(=O)O)c1Cl [Compound 163]	1

What follows are molecules tested on MATSS: scented mayweed (Matricaria chamomilla), pineappleweed (Matricaria matricarioides) in the same assay as above. Details: Matricaria chamomilla, post-emergence, 504 h; 35 g ai/ha; 21 days after application; read-out: Visual Gorowth Reduction (%) 21 days After Application MATSS.
Type: in vivo
Procedure, shortened: as §1

Structure (SMILES)	pest or weed control at 35 g/ha [%]
Nc1c(F)c(-c2ccc(I)c(F)c2)nc(C(=O)O)c1Cl [Compound 157]	60 to 74
Nc1c(F)c(-c2ccc(Br)cc2F)nc(C(=O)O)c1Cl [Compound 163]	75 to 84

Same assay, conditions: Matricaria chamomilla, post-emergence, 504 h; 70 g ai/ha; 21 days after application; read-out: Visual Gorowth Reduction (%) 21 days After Application MATSS

Structure (SMILES)	pest or weed control at 70 g/ha [%]
Nc1c(F)c(-c2ccc(I)c(F)c2)nc(C(=O)O)c1Cl [Compound 157]	75 to 84
Nc1c(F)c(-c2ccc(Br)cc2F)nc(C(=O)O)c1Cl [Compound 163]	95 to 100

Same assay, conditions: probit analysis; dose for 50 percent growth reduction; 21 days after application

Structure (SMILES)	GR50 MATSS [g ai/ha]
Nc1c(F)c(-c2ccc(I)c(F)c2)nc(C(=O)O)c1Cl [Compound 157]	21
Nc1c(F)c(-c2ccc(Br)cc2F)nc(C(=O)O)c1Cl [Compound 163]	5

Same assay, conditions: probit analysis; dose for 80 percent growth reduction; 21 days after application

Structure (SMILES)	GR80 MATSS [g ai/ha]
Nc1c(F)c(-c2ccc(I)c(F)c2)nc(C(=O)O)c1Cl [Compound 157]	64
Nc1c(F)c(-c2ccc(Br)cc2F)nc(C(=O)O)c1Cl [Compound 163]	24

The molecules below were run on VERPE: bird's-eye speedwell (veronica persica) in the same assay as above. Details: Veronica persica, post-emergence, 504 h; 35 g ai/ha; 21 days after application; read-out: Visual Gorowth Reduction (%) 21 days After Application VERPE.
Type: in vivo
Procedure, shortened: as §1

Structure (SMILES)	pest or weed control at 35 g/ha [%]
Nc1c(F)c(-c2ccc(I)c(F)c2)nc(C(=O)O)c1Cl [Compound 157]	30 to 44
Nc1c(F)c(-c2ccc(Br)cc2F)nc(C(=O)O)c1Cl [Compound 163]	75 to 84

Same assay, conditions: Veronica persica, post-emergence, 504 h; 70 g ai/ha; 21 days after application; read-out: Visual Gorowth Reduction (%) 21 days After Application VERPE

Structure (SMILES)	pest or weed control at 70 g/ha [%]
Nc1c(F)c(-c2ccc(I)c(F)c2)nc(C(=O)O)c1Cl [Compound 157]	60 to 74
Nc1c(F)c(-c2ccc(Br)cc2F)nc(C(=O)O)c1Cl [Compound 163]	95 to 100

Same assay, conditions: probit analysis; dose for 50 percent growth reduction; 21 days after application

Structure (SMILES)	GR50 VERPE [g ai/ha]
Nc1c(F)c(-c2ccc(I)c(F)c2)nc(C(=O)O)c1Cl [Compound 157]	50
Nc1c(F)c(-c2ccc(Br)cc2F)nc(C(=O)O)c1Cl [Compound 163]	13

Same assay, conditions: probit analysis; dose for 80 percent growth reduction; 21 days after application

Structure (SMILES)	GR80 VERPE [g ai/ha]
Nc1c(F)c(-c2ccc(I)c(F)c2)nc(C(=O)O)c1Cl [Compound 157]	>140
Nc1c(F)c(-c2ccc(Br)cc2F)nc(C(=O)O)c1Cl [Compound 163]	30

These molecules were tested on TRZSS: wheat, including spring and winter (Triticum aestivum) in the same assay as above. Details: Triticum aestivum, post-emergence, 504 h; 35 g ai/ha; 21 days after application; read-out: Visual Gorowth Reduction (%) 21 days After Application TRZSS.
Type: in vivo
Procedure, shortened: as §1

Structure (SMILES)	pest or weed control at 35 g/ha [%]
Nc1c(F)c(-c2ccc(I)c(F)c2)nc(C(=O)O)c1Cl [Compound 157]	75 to 84
Nc1c(F)c(-c2ccc(Br)cc2F)nc(C(=O)O)c1Cl [Compound 163]	75 to 84

Same assay, conditions: Triticum aestivum, post-emergence, 504 h; 70 g ai/ha; 21 days after application; read-out: Visual Gorowth Reduction (%) 21 days After Application TRZSS

Structure (SMILES)	pest or weed control at 70 g/ha [%]
Nc1c(F)c(-c2ccc(I)c(F)c2)nc(C(=O)O)c1Cl [Compound 157]	75 to 84
Nc1c(F)c(-c2ccc(Br)cc2F)nc(C(=O)O)c1Cl [Compound 163]	75 to 84

Same assay, conditions: probit analysis; dose for 20 percent growth reduction (crop); 21 days after application

Structure (SMILES)	GR20 TRZSS [g ai/ha]
Nc1c(F)c(-c2ccc(I)c(F)c2)nc(C(=O)O)c1Cl [Compound 157]	1
Nc1c(F)c(-c2ccc(Br)cc2F)nc(C(=O)O)c1Cl [Compound 163]	1

The molecules below were run on KCHSC: kochia (Kochia scoparia) in the same assay as above. Details: Bassia scoparia, post-emergence, 504 h; 35 g ai/ha; 21 days after application; read-out: Visual Gorowth Reduction (%) 21 days After Application KCHSC.
Type: in vivo
Procedure, shortened: as §1

Structure (SMILES)	pest or weed control at 35 g/ha [%]
Nc1c(F)c(-c2ccc(I)c(F)c2)nc(C(=O)O)c1Cl [Compound 157]	85 to 94
Nc1c(F)c(-c2ccc(Br)cc2F)nc(C(=O)O)c1Cl [Compound 163]	75 to 84

Same assay, conditions: Bassia scoparia, post-emergence, 504 h; 70 g ai/ha; 21 days after application; read-out: Visual Gorowth Reduction (%) 21 days After Application KCHSC

Structure (SMILES)	pest or weed control at 70 g/ha [%]
Nc1c(F)c(-c2ccc(I)c(F)c2)nc(C(=O)O)c1Cl [Compound 157]	85 to 94
Nc1c(F)c(-c2ccc(Br)cc2F)nc(C(=O)O)c1Cl [Compound 163]	85 to 94

Same assay, conditions: probit analysis; dose for 50 percent growth reduction; 21 days after application

Structure (SMILES)	GR50 KCHSC [g ai/ha]
Nc1c(F)c(-c2ccc(I)c(F)c2)nc(C(=O)O)c1Cl [Compound 157]	6
Nc1c(F)c(-c2ccc(Br)cc2F)nc(C(=O)O)c1Cl [Compound 163]	8

Same assay, conditions: probit analysis; dose for 80 percent growth reduction; 21 days after application

Structure (SMILES)	GR80 KCHSC [g ai/ha]
Nc1c(F)c(-c2ccc(I)c(F)c2)nc(C(=O)O)c1Cl [Compound 157]	18
Nc1c(F)c(-c2ccc(Br)cc2F)nc(C(=O)O)c1Cl [Compound 163]	36
